ChEMBL document CHEMBL4616624, “STAT3 inhibitory activity of naphthoquinones isolated from Tabebuia avellanedae” (Bioorg Med Chem, 2020)
Calls of active or inactive are those of the source. The rule behind the calls is not given here.

Tests used:
[1] = biological target: T1, Signal transducer and activator of transcription 3 (Homo sapiens, UniProt P40763); assay: Inhibition of IL-6 induced STAT3 phosphorylation at Tyr705 residue in human MCF7 cells assessed as phosphorylation intensity level at 0.5 uM preincubated for 1 hr followed by IL-6 stimulation and measured after 1 hr by Western blot analysis; assay type: cell-based; set-up: scale not given: the % may be the effect or the level left
T1 sequence (P40763 whole entry): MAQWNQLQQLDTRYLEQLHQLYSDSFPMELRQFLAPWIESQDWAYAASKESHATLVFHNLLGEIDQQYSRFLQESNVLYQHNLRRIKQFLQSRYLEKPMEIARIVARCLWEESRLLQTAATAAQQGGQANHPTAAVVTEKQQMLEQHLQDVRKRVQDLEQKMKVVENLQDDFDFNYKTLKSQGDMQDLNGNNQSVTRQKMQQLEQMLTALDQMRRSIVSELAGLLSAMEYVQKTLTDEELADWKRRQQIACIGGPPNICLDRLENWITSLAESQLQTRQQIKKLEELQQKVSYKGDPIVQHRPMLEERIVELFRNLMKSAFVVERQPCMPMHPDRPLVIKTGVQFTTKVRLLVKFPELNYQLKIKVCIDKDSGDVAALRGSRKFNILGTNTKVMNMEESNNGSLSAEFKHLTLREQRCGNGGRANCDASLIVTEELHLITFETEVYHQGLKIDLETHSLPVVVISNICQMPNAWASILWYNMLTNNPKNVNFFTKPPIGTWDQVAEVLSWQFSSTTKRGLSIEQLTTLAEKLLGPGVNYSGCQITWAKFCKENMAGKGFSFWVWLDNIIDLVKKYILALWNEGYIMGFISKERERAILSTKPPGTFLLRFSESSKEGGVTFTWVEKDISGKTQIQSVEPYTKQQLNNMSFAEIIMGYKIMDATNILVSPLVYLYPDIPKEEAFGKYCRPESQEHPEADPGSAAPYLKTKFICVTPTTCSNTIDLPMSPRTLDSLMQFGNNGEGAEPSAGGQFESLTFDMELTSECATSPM

[2] = biological target: T1, Signal transducer and activator of transcription 3; assay: Inhibition of IL-6 induced STAT3 phosphorylation at Tyr705 residue in human MCF7 cells assessed as phosphorylation intensity level at 4 uM preincubated for 1 hr followed by IL-6 stimulation and measured after 1 hr by Western blot analysis; assay type: cell-based; set-up: scale not given: the % may be the effect or the level left
[3] = biological target: T1, Signal transducer and activator of transcription 3; assay: Inhibition of IL-6 induced STAT3 phosphorylation at Tyr705 residue in human MCF7 cells preincubated for 1 hr followed by IL-6 stimulation and measured after 1 hr by Western blot analysis; assay type: cell-based
[4] = biological target: T1, Signal transducer and activator of transcription 3; assay: Inhibition of IL-6 induced STAT3 phosphorylation at Tyr705 residue in human MCF7 cells assessed as phosphorylation intensity level at 1 uM preincubated for 1 hr followed by IL-6 stimulation and measured after 1 hr by Western blot analysis; assay type: cell-based; set-up: scale not given: the % may be the effect or the level left
MCF7 [5] = assay: Effect on total STAT3 level in IL-6 induced human MCF7 cells at 0.5 to 4 uM preincubated for 1 hr followed by IL-6 stimulation and measured after 1 hr by Western blot analysis; assay type: ADME, cell-based; conditions: mcf7, 1 h
MCF7 [6] = assay: Cytotoxicity against human MCF7 cells assessed as reduction in cell proliferation measured after 72 hrs by WST8 assay; assay type: functional, cell-based; conditions: MCF7, 72 h
A549 = assay: Cytotoxicity against human A549 cells assessed as reduction in cell proliferation measured after 72 hrs by WST8 assay; assay type: functional, cell-based; conditions: A549, 72 h
[7] = biological target: T1, Signal transducer and activator of transcription 3; assay: Inhibition of IL-6 induced STAT3 phosphorylation at Tyr705 residue in human MCF7 cells assessed as phosphorylation intensity level at 2 uM preincubated for 1 hr followed by IL-6 stimulation and measured after 1 hr by Western blot analysis; assay type: cell-based; set-up: scale not given: the % may be the effect or the level left
MDA-MB-231 [8] = assay: Cytotoxicity against human MDA-MB-231 cells assessed as reduction in cell proliferation measured after 72 hrs by WST8 assay; assay type: functional, cell-based; conditions: MDA-MB-231, 72 h
[9] = biological target: Tyrosine-protein kinase JAK1 (Homo sapiens) (UniProt P23458); assay: Inhibition of human recombinant N-terminal GST-tagged JAK1 (850 to 1154 residue) expressed in baculovirus expression system at 100 uM using JAK1 peptide as substrate by mobility shift assay relative to control
Sequence of Tyrosine-protein kinase JAK1 (Homo sapiens) (P23458 whole entry): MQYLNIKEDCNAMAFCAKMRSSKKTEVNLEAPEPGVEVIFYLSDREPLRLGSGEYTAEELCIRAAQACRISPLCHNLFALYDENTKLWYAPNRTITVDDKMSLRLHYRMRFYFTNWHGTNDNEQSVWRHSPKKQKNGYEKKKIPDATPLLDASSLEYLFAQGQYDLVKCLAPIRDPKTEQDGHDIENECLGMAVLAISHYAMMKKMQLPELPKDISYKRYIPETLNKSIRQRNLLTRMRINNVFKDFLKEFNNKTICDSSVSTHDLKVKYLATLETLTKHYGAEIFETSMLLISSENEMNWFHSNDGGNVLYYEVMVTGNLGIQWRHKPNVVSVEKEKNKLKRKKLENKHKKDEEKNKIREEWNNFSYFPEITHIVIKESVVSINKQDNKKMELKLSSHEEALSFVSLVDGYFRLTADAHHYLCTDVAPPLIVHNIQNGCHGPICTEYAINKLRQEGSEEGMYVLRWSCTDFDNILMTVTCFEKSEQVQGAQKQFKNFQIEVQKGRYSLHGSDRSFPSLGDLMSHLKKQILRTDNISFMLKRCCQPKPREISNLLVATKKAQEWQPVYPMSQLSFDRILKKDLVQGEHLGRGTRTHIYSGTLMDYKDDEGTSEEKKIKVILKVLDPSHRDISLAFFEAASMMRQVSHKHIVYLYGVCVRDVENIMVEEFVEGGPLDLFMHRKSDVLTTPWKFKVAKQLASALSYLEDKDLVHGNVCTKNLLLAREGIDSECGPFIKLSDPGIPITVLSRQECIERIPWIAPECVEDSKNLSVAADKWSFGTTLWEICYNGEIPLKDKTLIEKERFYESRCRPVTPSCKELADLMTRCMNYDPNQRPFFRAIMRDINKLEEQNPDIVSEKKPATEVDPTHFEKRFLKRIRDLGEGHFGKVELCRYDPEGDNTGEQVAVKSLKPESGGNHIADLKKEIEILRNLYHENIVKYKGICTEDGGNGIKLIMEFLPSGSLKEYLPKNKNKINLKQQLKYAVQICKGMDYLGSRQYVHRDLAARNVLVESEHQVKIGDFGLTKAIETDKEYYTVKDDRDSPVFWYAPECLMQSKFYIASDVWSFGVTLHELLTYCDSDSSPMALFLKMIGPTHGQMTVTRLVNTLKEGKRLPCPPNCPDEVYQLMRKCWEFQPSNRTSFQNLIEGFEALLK

[10] = biological target: T1, Signal transducer and activator of transcription 3; assay: Inhibition of IL-6 induced STAT3 phosphorylation at Tyr705 residue in human MCF7 cells at 1 uM preincubated for 1 hr followed by IL-6 stimulation and measured after 1 hr by Western blot analysis relative to control; assay type: cell-based
MDA-MB-231 [11] = assay: Inhibition of JAK/STAT signaling in human MDA-MB-231 cells assessed as decrease in STAT3 phosphorylation by measuring phosphorylated intensity level at 2 uM incubated for 2 hrs by Western blot analysis (reference value: 100%); assay type: cell-based; set-up: scale not given: the % may be the effect or the level left
[12] = biological target: T1, Signal transducer and activator of transcription 3; assay: Inhibition of FAM-G(py)LPQTV-NH2 binding to GST-tagged STAT3-SH2 domain (unknown origin) preincubated for 15 mins followed by FAM-G(py)LPQTV-NH2 addition and measured after 30 mins by TR-FRET assay
MDA-MB-231 [13] = assay: Inhibition of JAK/STAT signaling in human MDA-MB-231 cells assessed as decrease in STAT3 phosphorylation by measuring phosphorylated intensity level at 4 uM incubated for 2 hrs by Western blot analysis (reference value: 100%); assay type: cell-based; set-up: scale not given: the % may be the effect or the level left
MDA-MB-231 [14] = assay: Inhibition of JAK/STAT signaling in human MDA-MB-231 cells assessed as decrease in STAT3 phosphorylation by measuring phosphorylated intensity level at 1 uM incubated for 2 hrs by Western blot analysis (reference value: 100%); assay type: cell-based; set-up: scale not given: the % may be the effect or the level left
MDA-MB-231 [15] = assay: Inhibition of JAK/STAT signaling in human MDA-MB-231 cells assessed as decrease in STAT3 phosphorylation by measuring phosphorylated intensity level at 0.5 uM incubated for 2 hrs by Western blot analysis (reference value: 100%); assay type: cell-based; set-up: scale not given: the % may be the effect or the level left
[16] = biological target: Tyrosine-protein kinase JAK2 (Homo sapiens) (UniProt O60674); assay: Inhibition of IL-6 induced JAK2 phosphorylation at Tyr1007/1008 residue in human MCF7 cells preincubated for 1 hr followed by IL-6 stimulation and measured after 1 hr by Western blot analysis; assay type: cell-based
Sequence of Tyrosine-protein kinase JAK2 (Homo sapiens) (O60674 whole entry): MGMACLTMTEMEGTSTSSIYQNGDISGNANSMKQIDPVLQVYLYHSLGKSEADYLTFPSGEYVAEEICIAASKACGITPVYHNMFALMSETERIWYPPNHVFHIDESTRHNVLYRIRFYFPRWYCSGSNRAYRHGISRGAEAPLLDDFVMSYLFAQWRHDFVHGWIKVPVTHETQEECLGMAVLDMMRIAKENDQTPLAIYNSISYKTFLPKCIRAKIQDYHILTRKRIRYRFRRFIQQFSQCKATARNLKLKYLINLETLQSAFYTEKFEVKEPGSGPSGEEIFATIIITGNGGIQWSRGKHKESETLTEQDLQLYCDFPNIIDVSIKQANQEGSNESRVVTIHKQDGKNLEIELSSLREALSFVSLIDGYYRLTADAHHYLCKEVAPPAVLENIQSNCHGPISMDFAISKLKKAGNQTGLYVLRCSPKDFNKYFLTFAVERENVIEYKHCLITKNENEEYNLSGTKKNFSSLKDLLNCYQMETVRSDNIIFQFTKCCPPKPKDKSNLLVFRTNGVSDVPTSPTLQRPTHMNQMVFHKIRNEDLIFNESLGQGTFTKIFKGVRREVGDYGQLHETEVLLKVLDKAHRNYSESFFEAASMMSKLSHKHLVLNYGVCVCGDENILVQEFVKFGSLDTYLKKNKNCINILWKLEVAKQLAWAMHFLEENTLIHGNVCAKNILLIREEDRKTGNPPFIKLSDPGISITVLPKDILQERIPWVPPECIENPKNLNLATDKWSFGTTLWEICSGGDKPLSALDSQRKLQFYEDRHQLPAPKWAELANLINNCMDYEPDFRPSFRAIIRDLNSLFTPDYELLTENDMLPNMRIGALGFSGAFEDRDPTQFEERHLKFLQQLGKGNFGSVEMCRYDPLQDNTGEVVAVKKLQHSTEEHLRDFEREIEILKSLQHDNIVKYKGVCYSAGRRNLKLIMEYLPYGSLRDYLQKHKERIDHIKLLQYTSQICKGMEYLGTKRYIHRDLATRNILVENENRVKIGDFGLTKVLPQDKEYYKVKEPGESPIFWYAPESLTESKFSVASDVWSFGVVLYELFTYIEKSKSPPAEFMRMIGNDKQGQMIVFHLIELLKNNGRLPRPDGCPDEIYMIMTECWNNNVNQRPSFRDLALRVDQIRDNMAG

MDA-MB-231 [17] = assay: Inhibition of JAK/STAT signaling in human MDA-MB-231 cells assessed as decrease in STAT3 phosphorylation incubated for 2 hrs by Western blot analysis; assay type: cell-based
[18] = biological target: T2, Tyrosine-protein kinase JAK3 (Homo sapiens) (UniProt P52333); assay: Inhibition of human recombinant N-terminal His-tagged JAK3 (795 to 1124 residue) expressed in baculovirus infected Sf21 insect cells up to 100 uM using Srctide as substrate by mobility shift assay
T2 sequence (whole entry): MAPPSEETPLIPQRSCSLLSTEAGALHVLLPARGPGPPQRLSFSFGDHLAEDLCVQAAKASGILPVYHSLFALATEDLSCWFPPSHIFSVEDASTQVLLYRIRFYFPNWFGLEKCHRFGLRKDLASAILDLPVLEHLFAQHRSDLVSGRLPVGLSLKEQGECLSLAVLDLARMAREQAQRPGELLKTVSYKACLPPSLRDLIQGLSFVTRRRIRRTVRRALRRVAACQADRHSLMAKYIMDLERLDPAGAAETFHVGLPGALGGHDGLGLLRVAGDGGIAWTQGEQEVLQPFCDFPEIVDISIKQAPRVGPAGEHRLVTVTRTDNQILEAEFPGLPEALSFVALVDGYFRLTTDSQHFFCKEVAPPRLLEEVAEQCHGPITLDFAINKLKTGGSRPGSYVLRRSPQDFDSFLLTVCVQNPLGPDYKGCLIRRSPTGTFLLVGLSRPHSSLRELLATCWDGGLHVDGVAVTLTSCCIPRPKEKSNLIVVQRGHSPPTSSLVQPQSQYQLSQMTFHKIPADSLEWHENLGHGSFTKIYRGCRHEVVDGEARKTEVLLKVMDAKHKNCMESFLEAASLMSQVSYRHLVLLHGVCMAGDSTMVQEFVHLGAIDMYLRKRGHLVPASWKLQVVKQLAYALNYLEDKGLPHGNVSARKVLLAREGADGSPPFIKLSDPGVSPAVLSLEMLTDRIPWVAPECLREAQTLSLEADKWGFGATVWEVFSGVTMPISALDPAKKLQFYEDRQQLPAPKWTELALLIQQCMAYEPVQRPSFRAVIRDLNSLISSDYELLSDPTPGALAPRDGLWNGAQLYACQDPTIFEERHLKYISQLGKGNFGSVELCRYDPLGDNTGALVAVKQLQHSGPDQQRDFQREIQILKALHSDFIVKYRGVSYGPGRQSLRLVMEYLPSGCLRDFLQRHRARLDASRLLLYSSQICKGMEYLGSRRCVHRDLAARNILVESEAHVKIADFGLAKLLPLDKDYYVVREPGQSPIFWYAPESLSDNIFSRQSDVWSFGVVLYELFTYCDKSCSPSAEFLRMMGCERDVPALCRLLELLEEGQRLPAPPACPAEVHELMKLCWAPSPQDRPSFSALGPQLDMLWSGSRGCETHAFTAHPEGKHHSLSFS

[19] = biological target: T3, Signal transducer and activator of transcription 1-alpha/beta (Homo sapiens) (UniProt P42224); assay: Inhibition of FAM-G(py)DKPHVL-NH2 binding to GST-tagged STAT1-SH2 domain (unknown origin) preincubated for 15 mins followed by FAM-G(py)DKPHVL-NH2 addition and measured after 30 mins by TR-FRET assay
T3 sequence (whole entry): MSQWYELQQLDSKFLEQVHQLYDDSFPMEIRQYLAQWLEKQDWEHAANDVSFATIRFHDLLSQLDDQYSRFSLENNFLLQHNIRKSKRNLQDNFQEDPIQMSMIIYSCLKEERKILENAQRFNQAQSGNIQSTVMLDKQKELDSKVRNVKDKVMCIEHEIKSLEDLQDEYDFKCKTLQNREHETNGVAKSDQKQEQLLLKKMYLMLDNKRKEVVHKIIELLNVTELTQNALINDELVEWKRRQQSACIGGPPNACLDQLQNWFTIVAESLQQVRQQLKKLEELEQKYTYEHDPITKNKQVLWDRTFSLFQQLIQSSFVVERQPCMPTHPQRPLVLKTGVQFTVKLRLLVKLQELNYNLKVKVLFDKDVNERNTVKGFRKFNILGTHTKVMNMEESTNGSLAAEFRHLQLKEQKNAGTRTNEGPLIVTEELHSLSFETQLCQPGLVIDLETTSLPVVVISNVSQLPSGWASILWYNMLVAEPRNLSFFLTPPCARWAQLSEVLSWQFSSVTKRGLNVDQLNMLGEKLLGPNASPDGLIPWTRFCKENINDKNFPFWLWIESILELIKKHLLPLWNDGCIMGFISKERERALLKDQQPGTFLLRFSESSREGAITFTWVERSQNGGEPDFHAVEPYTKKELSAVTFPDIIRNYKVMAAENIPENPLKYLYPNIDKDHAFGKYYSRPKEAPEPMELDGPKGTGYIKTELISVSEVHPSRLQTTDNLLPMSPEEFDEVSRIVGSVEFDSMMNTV

[20] = biological target: T1, Signal transducer and activator of transcription 3; assay: Inhibition of IL-6 induced STAT3 phosphorylation at Tyr705 residue in human MCF7 cells at 10 uM preincubated for 1 hr followed by IL-6 stimulation and measured after 1 hr by Western blot analysis relative to control; assay type: cell-based
[21] = biological target: Tyrosine-protein kinase JAK2 (Homo sapiens) (UniProt O60674); assay: Inhibition of human recombinant N-terminal His-tagged JAK2 (826 to 1132 residue) expressed in baculovirus expression system at 100 uM using Srctide as substrate by mobility shift assay relative to control

SMILES	Activity [1] [%]	Activity [2] [%]	Activity [4] [%]	Activity [7] [%]	inhibition [10]	inhibition [20]	Activity (MCF7 [5])	IC50 (MCF7 [6]) [µM]	IC50 (A549) [µM]	IC50 (MDA-MB-231 [8]) [µM]	other results
CC1(C)CCC2=C(O1)c1ccccc1C(=O)C2=O [LAPACHONE]	–	–	–	–	inactive	inactive	–	0.71	1.96	1.39	–
CC1(C)CCC2=C(O1)C(=O)c1ccccc1C2=O [ALPHA-LAPACHONE]	–	–	–	–	inactive	inactive	–	> 30	> 30	> 30	–
CC(=O)c1cc2c(o1)C(=O)c1ccccc1C2=O [NAPABUCASIN]	–	–	–	–	–	–	Non-Toxic	0.24	0.12	0.25	inhibition [9]: 95.5%; Activity (MDA-MB-231 [11]): 48%; Activity (MDA-MB-231 [13]): 28%; Activity (MDA-MB-231 [14]): 107%; Activity (MDA-MB-231 [15]): 111%; inhibition (MDA-MB-231 [17]): Dose-dependent effect; inhibition [18]: inactive; inhibition [21]: 84.7%
CC(C)=CCC1=C(O)C(=O)c2ccccc2C1=O [LAPACHOL]	–	–	–	–	inactive	inactive	–	> 30	> 30	> 30	–

More lines, main results first:

Activity [1] [%]	Activity [2] [%]	Activity [4] [%]	Activity [7] [%]	inhibition [10]	inhibition [20]	SMILES	Activity (MCF7 [5])	IC50 (MCF7 [6]) [µM]	IC50 (A549) [µM]	IC50 (MDA-MB-231 [8]) [µM]	other results
107	23	84	38	–	–	CC(=O)c1cc2c(o1)C(=O)c1cccc(O)c1C2=O	Non-Toxic	0.051	0.044	0.17	IC50 [3]: 2 µM
76	3	75	43	Active	100%	C[C@H](O)c1cc2c(o1)C(=O)c1cccc(O)c1C2=O	Non-Toxic	0.5	0.13	0.41	inhibition [9]: 94.8%; Activity (MDA-MB-231 [11]): 21%; inhibition [12]: inactive; Activity (MDA-MB-231 [13]): 35%; Activity (MDA-MB-231 [14]): 78%; IC50 [3]: 2 µM; Activity (MDA-MB-231 [15]): 68%; inhibition [16]: Dose-dependent effect; inhibition (MDA-MB-231 [17]): Dose-dependent effect; inhibition [18]: inactive; inhibition [19]: inactive; inhibition [21]: 80.6%
36	35	23	20	–	–	C[C@H](O)c1cc2c(o1)C(=O)c1ccccc1C2=O	Non-Toxic	0.28	0.72	1.59	–
–	–	–	–	Active	100%	C[C@H](O)c1cc2c(o1)C(=O)c1c(O)cccc1C2=O	–	1.11	0.28	0.33	–
